# Entries after “also recorded” stand apart in the source; their conditions may differ.
# Assays:
# RARs = settings: pan-RAR antagonist; read-out: Kd for binding to RARs; cited from earlier work
# [1] = system: retinoid X receptor (RXR); settings: cited from earlier work
# [2] = system: CYP26A1 in squamous cell line (NES); assay: RT-PCR of CYP26A1 expression in squamous cells; format: cell-based; settings: squamous cells / normal squamous epithelium
# Description: Expression of CYP26A1 in Barrett's (BAR, Qhtert) and squamous cell line (NES) is examined by RT-PCR. […] The control when nil is added is denoted by N. The LRAT is the enzyme for retinyl ester formation from excessive retinol.
# [3] = system: Barrett's oesophagus biopsies; assay: Ex vivo organ culture of Barrett's oesophagus biopsies with citral; format: cell-based, human
# RAR = settings: cited from earlier work
# [4] = system: squamous oesophageal biopsies; assay: Ex vivo organ culture of squamous oesophageal biopsies with retinoic acid
# [5] = citral transformed tissue compared with native counterpart
# [6] = retinoic acid transformed tissue compared with native counterpart
smiles,measurement,setting,value
CCc1ccc(C2=CC(C)(C)Sc3ccc(C#Cc4ccc(C(=O)O)cc4)cc32)cc1 [AGN194310],Kd,RARs,2.5 nM
CCCN1c2ccccc2N=C(c2ccc(C(=O)O)cc2)c2cc3c(cc21)C(C)(C)CCC3(C)C [HX603],RXR antagonistic activity,[1],selective antagonistic activity
"CC(C)=CCCC(C)=CC=O [citral, 3,7-dimethyl-2,6-octadienal]",CYP26A1 expression / regulation,[2],depression of CYP26A1 activity; also recorded: down-regulated
same,Barrett's explants with squamous phenotype,"[3]; after 48 h citral in culture, 5/10 explants",50%
same,BrdU incorporation,[3]; [5],lack of BrdU incorporation
same,Ki-67 staining,[3]; [5],reduced Ki-67 staining
same,cytokeratin expression (immunohistochemistry),"[3]; citral treated Barrett's explants, 48 h","expression of CK13 and CK14, but not CK8/18"
"CC1(C)CCC(C)(C)c2cc3c(cc21)CCc1c(-c2ccc(C(=O)O)cc2)cn(Cc2cccnc2)c1-3 [compound 31, 4-[4,5,7,8,9,10-hexahydro-7,7,10,-10-tetramethyl-1-(3-pyridylmethyl)anthra[1,2-b]pyrrol-3-yl]benzoic acid]",effectiveness of RAR antagonism,RAR,most effective
"CC1(C)CCC(C)(C)c2cc3c(cc21)SCc1c(-c2ccc(C(=O)O)cc2)cn(Cc2cccnc2)c1-3 [compound 40, 4-[4,5,7,8,9,10-hexahydro-7,7,10,10-tetramethyl-1-(3-pyridylmethyl)-5-thiaanthral[1,2-b]pyrrol-3-yl]benzoic acid]",effectiveness of RAR antagonism,RAR,most effective
"CC1(C)CCC(C)(C)c2cc3c(cc21)CCc1c(-c2ccc(C(=O)O)cc2)nn(Cc2cccnc2)c1-3 [compound 55, 4-[4,5,7,8,9,10-hexahydro-7,7,10,10-tetramethyl-1-(3-pyridylmethyl)anthra[2,1-d]pyrazol-3-yl]benzoic acid]",effectiveness of RAR antagonism,RAR,most effective
"CC1=C(/C=C/C(C)=C/C=C/C(C)=C/C(=O)O)C(C)(C)CCC1 [retinoic acid, all-trans retinoic acid]",CYP26A1 expression / regulation,[2],not induced
same,squamous tissue with glandular phenotype (villiform surface and mucosal glands),"[4]; after 48 hours retinoic acid in culture, 8/31 explants",26%
same,epithelial markers by RT-PCR,[4]; full thickness squamous epithelial biopsy (NE),induced the glandular epithelial markers CK 8/18 and 7 with reduction of the squamous epithelial CK13
same,cytokeratin expression (immunohistochemistry),"[4]; retinoic acid induced glandular tissue, 48 hours",expresses cytokeratins CK8/18 and CK7 but not CK13
same,BrdU incorporation,[4]; [6],lack of BrdU incorporation
same,Ki-67 staining,[4]; [6],reduced Ki-67 staining
same,p21 expression,[4]; retinoic acid treated squamous tissue,enhanced p21 expression
same,villin (immunohistochemistry),[4]; retinoic acid treated tissue,strongly induced
CC1=C(/C=C/C(C)=C/C=C/C(C)=C/CO)C(C)(C)CCC1 [retinol],CYP26A1 expression / regulation,[2],not induced
